# US20170035691A1, “FOOD MATRICES AND METHODS OF MAKING AND USING” (UNIVERSITY OF MASSACHUSETTS, priority 2014, published 2017)
# Legend:
# [1] = Rat feeding study: heptadecanoic acid and CoQ10 in duodenum, jejunum, ileum (Example 2); assay type: in vivo; settings: for bioavailability in small intestinal tissues: encapsulated within digestible (corn oil) droplets with the smallest size, rat feeding study
# Method: An animal feeding study was used to test the bioavailability of free fatty acids and CoQ10. Female Sprague Dawley rats (about 200-250 g) were purchased from Charles River Laboratories (Wilmington, Mass.). The Institutional Animal Care and Use Committee of the University of Massachusetts, Amherst, approved all animal procedures. Animals were housed in individual wire-bottomed cages in a windowless room with a 12-h light-dark cycle. After 10 days of adaptation, rats were fasted for 6 hours and 5 ml of emulsion was administered into a rat's stomach using a feeding needle (Roboz Surgical Instrument, Gaithersburg, Md.). Sample administration was conducted five times with 30 min intervals. Thirty min after the final administration, the rats were sacrificed by CO2 gas asphyxiation and blood samples were collected via cardiac puncture. Collected blood samples were allowed to clot for 30 min and then the serum layer was separated by centrifugation at 800 g for 20 min at 4° C. Serum was kept at −80° C. until analysis. The small intestine was flushed with phosphate buffered saline (PBS) five times, and the duodenum, jejunum, and ileum were collected. The intestine samples were kept at −80° C. until fatty acid composition and CoQ10 analyses. The in vivo experiment was carried out once, using three rats per sample analyzed.
# Intestine extract was prepared by a method described previously by Tang, P. H., Miles, M. V., Miles, L., Quinlan, J., Wong, B., Wenisch, A., and Bove, K., “Measurement of reduced and oxidized coenzyme Q(9) and coenzyme Q(10) levels in mouse tissues by HPLC with coulometric detection”, Clinica Chimica Acta, 341(1-2):173-84 (2004), which is incorporated herein in its entirety. After thawing the intestine, approximately, 50 mg of intestine was weighed and 1 ml of ice cold 0.15M NaCl solution was added. Intestine sample (about 50 mg) was homogenized on ice and 50 μL of CoQ6 solution (Internal standard) and 25 μL of 1,4-benzoquione (5 mg/mL) solution was added to oxidize CoQ10. After 30 min. incubation at room temperature, 5 ml of 1-propanol was added and then mixed by vortexing for 1 min. Sample was centrifuged at 2,000 g for 5 min and the supernatant was filtered with a 0.1 μm disposable syringe filter (Celltreat, Shirley, Mass.). The oxidized CoQ10 concentration was standardized relative to the tissue weight.
# Quantitative analysis was carried out using a high performance liquid chromatography system (Shimadzu Co. Japan) equipped with a pump (LC-10 AT), UV-visible detector (SPD-M10A), and controller (SCL-10A). A reverse phase C-18 column (ODS-2 Hypersil, 200×4.6 mm, 5 μm, Thermo scientific, Waltham, Mass.) was used. The mobile phase comprised of a mixture of 4.2 g sodium acetate anhydrous, 15 mL of glacial acetic acid, 15 mL 2-propanol, 830 mL methanol, and 140 ml hexane. The injection volume was 100 μl, the flow rate was 1 ml/min, UV detection was made at 275 nm and all analysis was performed at room temperature under isocratic conditions.
# Lipids were extracted from samples (duodenum, jejunum, ileum) and blood using a standard method by Folch, J., Lees, M., and Stanley, G. H. S., “A simple method for the isolation and purification of total lipids from animal tissues”, Journal of Biological Chemistry, 226(1):497-509 (1957), which is incorporated herein in its entirety, and then the fatty acids were methylated prior to gas chromatography analysis as taught by Park, Y. and Pariza, M. W., “Evidence that commercial calf and horse sera can contain substantial amounts of trans-10,cis-12 conjugated linoleic acid”, Lipids, 33(8):817-19 (1998), which is incorporated herein in its entirety. Tridecenoic acid was used as an internal standard. Methyl esters of fatty acids were analyzed using a GC instrument (GC-17A, Shimadzu, Kyoto, Japan) fitted with a flame-ionization detector. […]
# [2] = Curcumin solubility in curcumin-emulsion mixtures, spectrophotometric (Example 3); assay type: physicochemical; settings: excipient emulsion, aqueous with cosolvent or surfactant or cyclodextrin, thermodynamic from solid
# Method: Preparation of curcumin-emulsion, curcumin-oil, and curcumin-buffer mixtures. […] After incubation, selected samples were immediately placed in an ice water and then used for the following experiments. In some experiments, the curcumin was mixed with bulk corn oil or with buffer (PBS) solution rather than an emulsion.
# 1 mL of supernatant was then mixed with 5 mL chloroform, vortexed, and centrifuged at 1750 rpm for 10 min at ambient temperature. […] The two bottom chloroform layers were combined, and diluted to an appreciate concentration to be analyzed by a UV-VIS spectrophotometer at 419 nm (Ultraspec 3000 pro, GE Health Sciences, USA). A cuvette containing pure chloroform was used as a reference cell.
# [3] = Curcumin oil-solubility in bulk corn oil by turbidity (Example 3); assay type: physicochemical; settings: for dissolution of curcumin crystals in corn oil (turbidity versus time): 3 mg/mL
# Method: In some experiments, the change in turbidity with time was measured at a fixed incubation temperature (30 or 100° C.) to determine the kinetics of isothermal dissolution.
# [4] = Cross-polarized light microscopy of curcumin crystals in mixtures (Example 3); assay type: physicochemical
# [5] = Curcumin solubility in curcumin-excipient emulsion mixtures of different droplet size (Example 4); assay type: physicochemical; settings: for solubility at 10 min: aqueous with cosolvent or surfactant or cyclodextrin, thermodynamic from solid, after incubation at 100° C.; for amount of curcumin present within the emulsion: 30° C. for 30 min
# Method: The resulting mixtures were then incubated at either 30° C. for 30 min or 100° C. for 10 min to simulate a salad dressing or a cooking sauce, respectively. After incubation, selected samples were immediately placed in an ice water and then used for the following experiments.
# One millilitre of supernatant was then mixed with 5 mL chloroform, vortexed, and centrifuged at 1750 rpm (≈940×G) for 10 min at ambient temperature. […] The two bottom chloroform layers were combined, and diluted to a concentration suitable to be analysed by a UV-VIS spectrophotometer at 419 nm (Ultraspec 3000 pro, GE Health Sciences, Pittsburgh, Pa., USA). A cuvette containing pure chloroform was used as a reference cell.
# [6] = Cross-polarized light microscopy of curcumin crystals (Example 4); assay type: physicochemical
# [7] = In vitro digestion model: bioaccessibility of β-carotene crystals mixed with emulsion or buffer (FIG. 6); assay type: in vitro ADME; settings: β-carotene crystals mixed with oil-in-water emulsion (4% corn oil) versus buffer solution (PBS) without oil
# Method: In this exemplary embodiment, β-carotene crystals were initially mixed with either an oil-in-water emulsion (containing 4% corn oil) or a buffer solution (PBS) containing no oil. The resulting mixtures were then passed through an in vitro gastrointestinal model that simulated the mouth, stomach, and small intestine. The bioaccessibility of β-carotene was determined by centrifuging the digesta resulting from a GIT model, and then measuring the fraction of β-carotene in the mixed micelle (middle phase). The GIT model used is described in Salvia-Trujillo, L.; Qian, C.; Martin-Belloso, O.; McClements, D. J., “Influence of Particle Size on Lipid Digestion and β-carotene Bioaccessibility in Emulsions and Nanoemulsions”, Food Chemistry, 141:1472-80 (2013), which is incorporated by reference herein in its entirety and for all purposes. In another instance, the method of these teachings also include using an animal feeding study to verify improvement of oral bioavailability when the predetermined pharmaceutical or nutraceutical is ingested with the food matrix. […]
# [8] = Simulated gastrointestinal tract model: β-carotene bioaccessibility of nanoemulsions (Example 1); assay type: in vitro ADME; settings: nanoemulsion, 0% corn oil (pure lemon oil system)
# Method: Each β-carotene-enriched nanoemulsion was passed through a three-step simulated GIT model that consisted of a mouth, gastric, and small intestine phase. The particle size, charge, and microstructure of the samples were measured after incubation in each stage. […]
# Small Intestine phase: Digesta samples (30 ml) obtained from the simulated gastric phase were placed in a beaker incubated in a water bath (37° C.) for 10 min and then adjusted to pH 7 with NaOH solution (0.05 or 1 M). […] The amount of free fatty acids released was calculated from the titration curves as described in Li, Y. and McClements, D. J., New Mathematical Model for Interpreting pH-Stat Digestion Profiles: Impact of Lipid Droplet Characteristics on in Vitro Digestibility”, Journal of Agricultural and Food Chemistry, 58:8085-92 (2010), which is incorporated herein in its entirety. The release of free fatty acids from the digestible oil (corn oil) was calculated by subtracting the FFA concentration determined at each time point for the pure lemon oil nanoemulsions from the FFA concentration determined for the nanoemulsions containing corn oil. […]
compound,measurement,setting,value
"COC1=C(OC)C(=O)C(C/C=C(\C)CC/C=C(\C)CC/C=C(\C)CC/C=C(\C)CC/C=C(\C)CC/C=C(\C)CC/C=C(\C)CC/C=C(\C)CC/C=C(\C)CCC=C(C)C)=C(C)C1=O [CoQ10, Coenzyme Q10]",bioavailability in small intestinal tissues,[1],highest
same,absorption of CoQ10 in all regions of the small intestine,"[1]; rat, in vivo",some absorption
same,absorption of CoQ10 in duodenum,"[1]; rat, in vivo",no significant differences
same,absorption of CoQ10 in jejunum and ileum,"[1]; rat, in vivo",significantly higher
COc1cc(/C=C/C(=O)CC(=O)/C=C/c2ccc(O)c(OC)c2)ccc1O [curcumin],solubility at 60 min,[2]; incubation for 60 min at 30° C.,~54 µg/mL
same,solubility at 60 min,[2]; incubation for 60 min at 90° C. (so in the source),~218 µg/mL
same,dissolution of curcumin crystals in corn oil (turbidity versus time),[3]; held at 30° C.,only dissolved slowly
same,dissolution of curcumin crystals in corn oil (turbidity versus time),[3]; held at 100° C.,rapidly dissolved
same,solubility,"[3]; bulk corn oil, oil or lipid, thermodynamic from solid, ambient temperature, estimated from turbidity at 3 and 4 mg/mL",3000 to 4000 µg/mL
same,dissolution of curcumin crystals in curcumin-emulsion mixtures,"[4]; held at 100° C., any incubation time",rapidly and completely dissolved
same,dissolution of curcumin crystals in curcumin-emulsion mixtures,[4]; incubated at 30° C. from 10 to 120 min,did not completely dissolve
same,solubility at 10 min,"[5]; excipient emulsion, large droplets",230 µg/mL
same,solubility at 10 min,"[5]; excipient emulsions, small and medium droplets",270 to 280 µg/mL
same,amount of curcumin present within the emulsion,[5]; large emulsion,~88 ± 26 µg/mL
same,amount of curcumin present within the emulsion,[5]; medium emulsion,~104 ± 6 µg/mL
same,amount of curcumin present within the emulsion,[5]; small emulsion,around 66±1 μg/mL
same,dissolution of curcumin crystals in curcumin-excipient emulsion mixtures,[6]; all mixtures held at 100° C.,rapidly and completely dissolved
same,dissolution of curcumin crystals in curcumin-excipient emulsion mixtures,[6]; all mixtures incubated at 30° C.,did not completely dissolve
"CCCCCCCCCCCCCCCCC(=O)O [heptadecanoic acid, reference compound]",bioavailability in small intestinal tissues,[1],highest
same,absorption of heptadecanoic acid in duodenum and jejunum,"[1]; rat, in vivo",slightly more absorption
same,"absorption of heptadecanoic acid in duodenum, jejunum and ileum","[1]; rat, in vivo",significantly higher
CC1=C(/C=C/C(C)=C/C=C/C(C)=C/C=C/C=C(C)/C=C/C=C(C)/C=C/C2=C(C)CCCC2(C)C)C(C)(C)CCC1 [β-carotene],bioaccessibility of β-carotene,[7],increases the bioaccessibility
same,bioaccessibility of β-carotene,[8],≈ 5%
